Assay [1] deals with GDP-bound HRAS wild-type protein (Homo sapiens, UniProt P01112). The assay can be described thus: Binding to HRAS by surface plasmon resonance (SPR), Single Cycle Kinetics. As to conditions: SPR, GDP-bound HRAS wild-type vs GDP-bound KRAS wild-type.
Assay [2] addresses GDP-bound NRAS wild-type protein (Homo sapiens, UniProt P01111). Briefly: Binding to NRAS by surface plasmon resonance (SPR), Single Cycle Kinetics. The note with it: SPR, GDP-bound NRAS wild-type vs GDP-bound KRAS wild-type.

Chain of GDP-bound NRAS wild-type protein (P01111 whole entry): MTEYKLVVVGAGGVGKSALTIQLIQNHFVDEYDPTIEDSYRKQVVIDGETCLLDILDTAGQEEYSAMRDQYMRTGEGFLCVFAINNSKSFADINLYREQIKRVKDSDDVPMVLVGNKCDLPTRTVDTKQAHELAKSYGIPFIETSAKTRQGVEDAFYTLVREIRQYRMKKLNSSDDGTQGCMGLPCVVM
Chain of GDP-bound HRAS wild-type protein (P01112 whole entry): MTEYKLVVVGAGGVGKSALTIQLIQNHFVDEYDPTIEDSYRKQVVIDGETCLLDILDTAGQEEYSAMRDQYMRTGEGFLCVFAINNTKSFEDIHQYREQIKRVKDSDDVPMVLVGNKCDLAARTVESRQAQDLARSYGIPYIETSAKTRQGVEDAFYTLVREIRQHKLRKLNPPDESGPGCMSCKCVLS

On to `CCO[C@@H]1C[C@H]2C(=O)NC3(CC(C)(C)C3)C(=O)N(C)[C@@H](C(CC)CC)C(=O)N(C)[C@H](C(=O)N(C)C)CC(=O)N(C)[C@@H](COC)C(=O)N[C@@H]([C@@H](C)CC)C(=O)N(C)CC(=O)N(C)[C@H]3C/C=C\CCN(C3=O)[C@@H](CC3CCC(F)(F)CC3)C(=O)N(C)CC(=O)N[C@@H](CCc3ccc(C(F)(F)F)c(Cl)c3)C(=O)N2C1` [PP2444], for which the “HRAS/KRAS (ratio of KD value with respect to HRAS to KD value with respect to KRAS)” value in assay [1] is “A (a compound having 10 or more and less than 20 is denoted as A)”. In addition, in assay [2], the “NRAS/KRAS (ratio of KD value with respect to NRAS to KD value with respect to KRAS)” value was “A (a compound having 10 or more and less than 20 is denoted as A)”.
For `CCOC[C@H]1C(=O)N[C@@H]([C@@H](C)CC)C(=O)N(C)CC(=O)N(C)[C@H]2C/C=C\CCN(C2=O)[C@@H](Cc2ccc(C)cc2)C(=O)N(C)CC(=O)N[C@@H](CCc2ccc(C(F)(F)F)c(OC)c2)C(=O)N2C[C@H](OCC)C[C@H]2C(=O)NC2(CC(C)(C)C2)C(=O)N(C)[C@@H](C2CCCC2)C(=O)N(C)[C@H](C(=O)N(C)CC)CC(=O)N1C` [PP2445], the “HRAS/KRAS (ratio of KD value with respect to HRAS to KD value with respect to KRAS)” value in assay [1] is “B (a compound having 3 or more and less than 10 is denoted as B)”. For the same compound, in assay [2], the “NRAS/KRAS (ratio of KD value with respect to NRAS to KD value with respect to KRAS)” value is “A (a compound having 10 or more and less than 20 is denoted as A)”.
In the case of `CCOC[C@H]1C(=O)N[C@@H]([C@@H](C)CC)C(=O)N(C)CC(=O)N(C)[C@H]2C/C=C\CCN(C2=O)[C@@H](CC2CCC(F)(F)CC2)C(=O)N(C)CC(=O)N[C@@H](CCc2ccc(C(F)(F)F)c(OC)c2)C(=O)N2C[C@H](OCC)C[C@H]2C(=O)NC2(CC(C)(C)C2)C(=O)N(C)[C@@H](C(CC)CC)C(=O)N(C)[C@H](C(=O)N(C)C)CC(=O)N1C` [PP2446], in assay [1], the “HRAS/KRAS (ratio of KD value with respect to HRAS to KD value with respect to KRAS)” value was “A (a compound having 10 or more and less than 20 is denoted as A)”. Besides, the “NRAS/KRAS (ratio of KD value with respect to NRAS to KD value with respect to KRAS)” value in assay [2] is “A (a compound having 10 or more and less than 20 is denoted as A)”.
For `CCCOC[C@H]1C(=O)N[C@@H]([C@@H](C)CC)C(=O)N(C)CC(=O)N(C)[C@H]2C/C=C\CCN(C2=O)[C@@H](Cc2ccc(C)cc2)C(=O)N(C)CC(=O)N[C@@H](CCc2ccc(C(F)(F)F)c(OC)c2)C(=O)N2C[C@@H](C)C[C@H]2C(=O)NC2(CC(C)(C)C2)C(=O)N(C)[C@@H](C2CCCC2)C(=O)N(C)[C@H](C(=O)N(C)C)CC(=O)N1C` [PP2447], the “HRAS/KRAS (ratio of KD value with respect to HRAS to KD value with respect to KRAS)” value in assay [1] is “B (a compound having 3 or more and less than 10 is denoted as B)”. In assay [2], the “NRAS/KRAS (ratio of KD value with respect to NRAS to KD value with respect to KRAS)” value is “A (a compound having 10 or more and less than 20 is denoted as A)”.
`CCC(CC)[C@H]1C(=O)N(C)[C@H](C(=O)N(C)C)CC(=O)N(C)[C@@H](COC)C(=O)N[C@@H]([C@@H](C)CC)C(=O)N(C)CC(=O)N(C)[C@H]2C/C=C\CCN(C2=O)[C@@H](CC2CCC(F)(F)CC2)C(=O)N(C)CC(=O)N[C@@H](CCc2cc(F)c(C(F)(F)F)c(F)c2)C(=O)N2C[C@@H](C)C[C@H]2C(=O)NC2(CC(C)(C)C2)C(=O)N1C` [PP2448]: in assay [1], the “HRAS/KRAS (ratio of KD value with respect to HRAS to KD value with respect to KRAS)” value was “A (a compound having 10 or more and less than 20 is denoted as A)”. In addition, the “NRAS/KRAS (ratio of KD value with respect to NRAS to KD value with respect to KRAS)” value in assay [2] was “A (a compound having 10 or more and less than 20 is denoted as A)”.
Regarding `CCCOC[C@H]1C(=O)N[C@@H]([C@@H](C)CC)C(=O)N(C)CC(=O)N(C)[C@H]2C/C=C\CCN(C2=O)[C@@H](Cc2ccc(C)cc2)C(=O)N(C)CC(=O)N[C@@H](CCc2ccc(C(F)(F)F)c(OC)c2)C(=O)N2C[C@H](OCC)C[C@H]2C(=O)NC2(CC(C)(C)C2)C(=O)N(C)[C@@H](C2CCCC2)C(=O)N(C)[C@H](C(=O)N(C)C)CC(=O)N1C` [PP2449], in assay [1], the “HRAS/KRAS (ratio of KD value with respect to HRAS to KD value with respect to KRAS)” value was “A (a compound having 10 or more and less than 20 is denoted as A)”. The “NRAS/KRAS (ratio of KD value with respect to NRAS to KD value with respect to KRAS)” value in assay [2] was “A (a compound having 10 or more and less than 20 is denoted as A)”.
Consider `CCOC[C@H]1C(=O)N[C@@H]([C@@H](C)CC)C(=O)N(C)CC(=O)N(C)[C@H]2C/C=C\CCN(C2=O)[C@@H](CC2CCC(F)(F)CC2)C(=O)N(C)CC(=O)N[C@@H](CCc2cc(F)c(C(F)(F)F)c(F)c2)C(=O)N2C[C@H](OCC)C[C@H]2C(=O)NC2(CC(C)(C)C2)C(=O)N(C)[C@@H](C(CC)CC)C(=O)N(C)[C@H](C(=O)N(C)C)CC(=O)N1C` [PP2450], for which the “HRAS/KRAS (ratio of KD value with respect to HRAS to KD value with respect to KRAS)” value in assay [1] is “A (a compound having 10 or more and less than 20 is denoted as A)”. In addition, in assay [2], the “NRAS/KRAS (ratio of KD value with respect to NRAS to KD value with respect to KRAS)” value is “A (a compound having 10 or more and less than 20 is denoted as A)”.
With `CCOC[C@H]1C(=O)N[C@@H]([C@@H](C)CC)C(=O)N(C)CC(=O)N(C)[C@H]2C/C=C\CCN(C2=O)[C@@H](Cc2ccc(C)cc2)C(=O)N(C)CC(=O)N[C@@H](CCc2ccc(C(F)(F)F)c(Cl)c2)C(=O)N2C[C@@H](C)C[C@H]2C(=O)NC2(CC(C)(C)C2)C(=O)N(C)[C@@H](C2CCCC2)C(=O)N(C)[C@H](C(=O)N(C)CC)CC(=O)N1C` [PP2451], in assay [1], the “HRAS/KRAS (ratio of KD value with respect to HRAS to KD value with respect to KRAS)” value is “A (a compound having 10 or more and less than 20 is denoted as A)”. Also, in assay [2], the “NRAS/KRAS (ratio of KD value with respect to NRAS to KD value with respect to KRAS)” value was “A (a compound having 10 or more and less than 20 is denoted as A)”.
In the case of `CCO[C@@H]1C[C@H]2C(=O)NC3(CC(C)(C)C3)C(=O)N(C)[C@@H](C(CC)CC)C(=O)N(C)[C@H](C(=O)N(C)C)CC(=O)N(C)[C@@H](COC)C(=O)N[C@@H]([C@@H](C)CC)C(=O)N(C)CC(=O)N(C)[C@H]3C/C=C\CCN(C3=O)[C@@H](CC3CCCCC3)C(=O)N(C)CC(=O)N[C@@H](CCc3ccc(C(F)(F)F)c(OC)c3)C(=O)N2C1` [PP2452], the “HRAS/KRAS (ratio of KD value with respect to HRAS to KD value with respect to KRAS)” value in assay [1] is “A (a compound having 10 or more and less than 20 is denoted as A)”. Further, the “NRAS/KRAS (ratio of KD value with respect to NRAS to KD value with respect to KRAS)” value in assay [2] was “A (a compound having 10 or more and less than 20 is denoted as A)”.
On to `CCCOC[C@H]1C(=O)N[C@@H]([C@@H](C)CC)C(=O)N(C)CC(=O)N(C)[C@H]2C/C=C\CCN(C2=O)[C@@H](Cc2ccc(C)cc2)C(=O)N(C)CC(=O)N[C@@H](CCc2ccc(C(F)(F)F)c(Cl)c2)C(=O)N2C[C@@H](C)C[C@H]2C(=O)NC2(CC(C)(C)C2)C(=O)N(C)[C@@H](C2CCCC2)C(=O)N(C)[C@H](C(=O)N(C)C)CC(=O)N1C` [PP2453], for which, in assay [1], the “HRAS/KRAS (ratio of KD value with respect to HRAS to KD value with respect to KRAS)” value is “A (a compound having 10 or more and less than 20 is denoted as A)”. The “NRAS/KRAS (ratio of KD value with respect to NRAS to KD value with respect to KRAS)” value in assay [2] was “A (a compound having 10 or more and less than 20 is denoted as A)”.
Turning to `CCC(CC)[C@H]1C(=O)N(C)[C@H](C(=O)N(C)C)CC(=O)N(C)[C@@H](COC)C(=O)N[C@@H]([C@@H](C)CC)C(=O)N(C)CC(=O)N(C)[C@H]2C/C=C\CCN(C2=O)[C@@H](CC2CCC(F)(F)CC2)C(=O)N(C)CC(=O)N[C@@H](CCc2ccc(C(F)(F)F)c(Cl)c2)C(=O)N2C[C@@H](C)C[C@H]2C(=O)NC2(CC(C)(C)C2)C(=O)N1C` [PP2454], in assay [1], the “HRAS/KRAS (ratio of KD value with respect to HRAS to KD value with respect to KRAS)” value is “A (a compound having 10 or more and less than 20 is denoted as A)”. The “NRAS/KRAS (ratio of KD value with respect to NRAS to KD value with respect to KRAS)” value in assay [2] is “AA (a compound having 20 or more is denoted as AA)”.
For `CC[C@H](C)[C@@H]1NC(=O)[C@H](COC)N(C)C(=O)C[C@@H](C(=O)N(CC)CC)N(C)C(=O)[C@H](C2CCCC2)N(C)C(=O)C2(CC(C)(C)C2)NC(=O)[C@@H]2C[C@H](C)CN2C(=O)[C@H](CCc2cc(F)c(C(F)(F)F)c(F)c2)NC(=O)CN(C)C(=O)[C@H](Cc2ccc(C)cc2)N2CC/C=C\C[C@@H](C2=O)N(C)C(=O)CN(C)C1=O` [PP2455], in assay [1], the “HRAS/KRAS (ratio of KD value with respect to HRAS to KD value with respect to KRAS)” value is “A (a compound having 10 or more and less than 20 is denoted as A)”. For the same compound, in assay [2], the “NRAS/KRAS (ratio of KD value with respect to NRAS to KD value with respect to KRAS)” value is “AA (a compound having 20 or more is denoted as AA)”.
As to `CCO[C@@H]1C[C@H]2C(=O)NC3(CC(C)(C)C3)C(=O)N(C)[C@@H](C(CC)CC)C(=O)N(C)[C@H](C(=O)N(C)C)CC(=O)N(C)[C@@H](COC)C(=O)N[C@@H]([C@@H](C)CC)C(=O)N(C)CC(=O)N(C)[C@H]3C/C=C\CCN(C3=O)[C@@H](CC3CCCCC3)C(=O)N(C)CC(=O)N[C@@H](CCc3cc(F)c(C(F)(F)F)c(F)c3)C(=O)N2C1` [PP2456], the “HRAS/KRAS (ratio of KD value with respect to HRAS to KD value with respect to KRAS)” value in assay [1] was “A (a compound having 10 or more and less than 20 is denoted as A)”. In assay [2], the “NRAS/KRAS (ratio of KD value with respect to NRAS to KD value with respect to KRAS)” value was “A (a compound having 10 or more and less than 20 is denoted as A)”.
In the case of `CCOC[C@H]1C(=O)N[C@@H]([C@@H](C)CC)C(=O)N(C)CC(=O)N(C)[C@H]2C/C=C\CCN(C2=O)[C@@H](Cc2ccc(C)cc2)C(=O)N(C)CC(=O)N[C@@H](CCc2cc(F)c(C(F)(F)F)c(F)c2)C(=O)N2C[C@@H](C)C[C@H]2C(=O)NC2(CC(C)(C)C2)C(=O)N(C)[C@@H](C2CCCC2)C(=O)N(C)[C@H](C(=O)N(C)CC)CC(=O)N1C` [PP2457], the “HRAS/KRAS (ratio of KD value with respect to HRAS to KD value with respect to KRAS)” value in assay [1] is “A (a compound having 10 or more and less than 20 is denoted as A)”. Besides, the “NRAS/KRAS (ratio of KD value with respect to NRAS to KD value with respect to KRAS)” value in assay [2] was “A (a compound having 10 or more and less than 20 is denoted as A)”.
`CCOC[C@H]1C(=O)N[C@@H]([C@@H](C)CC)C(=O)N(C)CC(=O)N(C)[C@H]2C/C=C\CCN(C2=O)[C@@H](CC2CCC(F)(F)CC2)C(=O)N(C)CC(=O)N[C@@H](CCc2ccc(C(F)(F)F)c(OC)c2)C(=O)N2C[C@@H](C)C[C@H]2C(=O)NC2(CC(C)(C)C2)C(=O)N(C)[C@@H](C(CC)CC)C(=O)N(C)[C@H](C(=O)N(C)C)CC(=O)N1C` [PP2458]: the “HRAS/KRAS (ratio of KD value with respect to HRAS to KD value with respect to KRAS)” value in assay [1] was “A (a compound having 10 or more and less than 20 is denoted as A)”. Moreover, in assay [2], the “NRAS/KRAS (ratio of KD value with respect to NRAS to KD value with respect to KRAS)” value is “A (a compound having 10 or more and less than 20 is denoted as A)”.

For the origin of these results see patent US20250230193A1, “CYCLIC COMPOUND HAVING SELECTIVE KRAS INHIBITORY EFFECT ON HRAS AND NRAS” (CHUGAI SEIYAKU KABUSHIKI KAISHA, priority 2022, published 2025).
